This note sets out measurements from ChEMBL document CHEMBL3797151, “Design, synthesis, assessment, and molecular docking of novel pyrrolopyrimidine (7-deazapurine) derivatives as non-nucleoside hepatitis C virus NS5B polymerase inhibitors” (Bioorg Med Chem, 2016).

Data set [1] is described as follows: Cytotoxicity against human Huh7.5 cells infected with HCV genotype 4a assessed as morphological changes after 72 hrs by inverted light microscopy. The format is cell-based, Huh-7.
Data set [2] relates to Hepatitis C virus. The data set is described as follows: Antiviral activity against HCV genotype 4a ED-43/SG-feo (VYG) replicons infected in human Huh7.5 cells assessed as inhibition of viral replication after 72 hrs by immunofluorescence assay. It counts as functional, organism-based, Hepacivirus hominis. To be noted: Huh-7, 72 h. Background: A replicon is a self-replicating genome or part of one, used to study replication in cells.

Data set [3] is described as follows: Cytotoxicity against human Huh7.5 cells infected with HCV genotype 4a assessed as cell viability after 72 hrs by trypan blue dye-based phase contrast microscopy. To be noted: Huh-7, 72 h.
In data set [4] the test system is Hepatitis C virus. In words: Antiviral activity against HCV genotype 4a ED-43/SG-feo (VYG) replicons infected in human Huh7.5 cells assessed as inhibition of viral replication at non-toxic dose after 72 hrs by immunofluorescence assay. It counts as functional, Hepacivirus hominis, Huh-7.

SMILES strings stand for the structures.

Take `Clc1ccc(-n2c(-c3ccccc3)c(-c3ccccc3)c3c(Cl)ncnc32)cc1`: the CC50 at 72 h in data set [1] came to 120 µM. In addition, in the data set on Hepatitis C virus [2], the IC50 turned out to be 108 µM. For the same compound, the CC50 in data set [3] worked out at 120 µM. Besides, the “inhibition (INH)” value with Hepatitis C virus [4] came to 73.3%.
In the case of `Clc1ccc(/C=N/Nc2ncnc3c2c(-c2ccccc2)c(-c2ccccc2)n3-c2cccc(Cl)c2)cc1`, the cytotoxic concentration (CC50) at 72 h in data set [1] worked out at 131 µM. The 50% inhibitory concentration (IC50) in the data set on Hepatitis C virus [2] is 102 µM. Further, the CC50 in data set [3] turned out to be 131 µM. Also, in the data set on Hepatitis C virus [4], the “inhibition (INH)” value turned out to be 63.3%.
In the case of `NNc1ncnc2c1c(-c1ccccc1)c(-c1ccccc1)n2-c1cccc(Cl)c1`, the CC50 at 72 h in data set [1] worked out at 146 µM. For the same compound, in the data set on Hepatitis C virus [2], the 50% inhibitory concentration (IC50) is greater than 150 µM. Also, the CC50 in data set [3] came out at 146 µM. Besides, the “inhibition (INH)” value in the data set on Hepatitis C virus [4] was determined as 0%.
As to `Cc1ccccc1Nc1ncnc2c1c(-c1ccccc1)c(-c1ccccc1)n2-c1cccc(Cl)c1`, the CC50 at 72 h in data set [1] was 144 µM. In addition, the IC50 in the data set with Hepatitis C virus [2] amounted to 92.4 µM. Also, in data set [3], the 50% cytotoxic concentration (CC50) turned out to be 144 µM. In the data set on Hepatitis C virus [4], the “inhibition (INH)” value is 76.7%.
Regarding `Clc1cccc(-n2c(-c3ccccc3)c(-c3ccccc3)c3c(Cl)ncnc32)c1`, the half-maximal cytotoxic concentration (CC50) at 72 h in data set [1] turned out to be 168 µM. Moreover, the IC50 in the data set with Hepatitis C virus [2] is greater than 150 µM. Besides, the cytotoxic concentration (CC50) in data set [3] was found to be 168 µM. The “inhibition (INH)” value with Hepatitis C virus [4] was 0%.
Turning to `Cc1ccccc1Nc1ncnc2c1c(-c1ccccc1)c(-c1ccccc1)n2-c1ccc(Cl)cc1`, in data set [1], the CC50 at 72 h was 144 µM. The IC50 with Hepatitis C virus [2] was 82.1 µM. Besides, the half-maximal cytotoxic concentration (CC50) in data set [3] worked out at 144 µM. Besides, the “inhibition (INH)” value in the data set with Hepatitis C virus [4] is reported as 90%.
For the compound `NNc1ncnc2c1c(-c1ccccc1)c(-c1ccccc1)n2-c1ccc(Cl)cc1`, the half-maximal cytotoxic concentration (CC50) at 72 h in data set [1] was 146 µM. In addition, the IC50 with Hepatitis C virus [2] is greater than 150 µM. The half-maximal cytotoxic concentration (CC50) in data set [3] was determined as 146 µM. Further, in the data set on Hepatitis C virus [4], the “inhibition (INH)” value was determined as 0%.
Regarding `Clc1ccc(/C=N/Nc2ncnc3c2c(-c2ccccc2)c(-c2ccccc2)n3-c2ccc(Cl)cc2)cc1`, in data set [1], the cytotoxic concentration (CC50) at 72 h came to 131 µM. Moreover, the concentration for half-maximal inhibition (IC50) in the data set on Hepatitis C virus [2] turned out to be 93.6 µM. For the same compound, the CC50 in data set [3] was determined as 131 µM. The “inhibition (INH)” value in the data set with Hepatitis C virus [4] is 70%.

The CC50 is the concentration that lowers cell viability or growth by half. In general, IC50 refers to the concentration at which inhibition is half-maximal.
